Results from US20250262272A1, “PEPTIDES AND METHODS OF USE THEREOF IN TREATING SKIN DISEASES” (Park Strategic Ventures LLC, priority 2022, published 2025).

Experiments:
[1] = system: imiquimod induced mouse model of psoriasis; experiment: imiquimod induced mouse model of psoriasis; assay type: in vivo, C57BL/6 mice
From the text: FIG. 2A illustrates the methodological details of an imiquimod induced mouse model of psoriasis. In particular, shown is a timeline of the psoriasis induction model and application of the MARCKS inhibitor (BIO 11006) and the three different outcomes analyzed.
FIG. 2B illustrates the skin thickness in micrometers of mice administered imiquimod daily for seven (7) days in order to mimic psoriasis in one (1) test group as compared to the skin thickness in micrometers from either of two (2) control groups. The test group consisted of mice administered imiquimod daily plus intraperitoneal (ip) injection of BIO 11006 as a daily single dose on each of days 1-7. The two (2) control groups consisted of (1) mice administered vaseline and (2) mice administered imiquimod daily and phosphate buffered saline (PBS). N=6-7 mice, mean+SD, 1-way ANOVA, Tukey test.
FIG. 3 depicts images of mice the skin on the nape of the neck for the test group and two control groups described for FIG. 2B and Example 1. #1, 2 and 3 represent same treatments.
FIG. 4 illustrates the percent dryness, flakiness, skin bumps and redness the skin on the nape of the neck for the test group and two control groups described for FIG. 2B and Example 1. At a scale of 0-5, 0 indicated no visible signs or symptoms; 1-3 indicated moderate forms of the respective sign or symptom; 4-5 indicated major forms of the respective sign or symptom.
Since skin inflammation and itch are common problems, two different mouse models with inflammation and itch were developed and used for rigorous in vivo testing of the inhibition of skin inflammation and itch in response to administration of the MARCKS inhibitor BIO11006 (Ac-GAQFSKTAAK-OH; SEQ ID NO: 106). The first model is a mouse model of AD induced using MC903. The second model is a mouse model of psoriasis induced using imiquimod. Imiquimod-induced disease progression of skin inflammation and itch resemble the MC903 mouse model. As such, the same relative timeline and drug delivery was used for the psoriasis mouse model as described for MC903 mouse model with exception that the terminal day was day 7 (D7 in FIG. 2A). As outlined in FIGS. 1A and 2A, these mouse models were used to conduct a comprehensive examination of how BIO11006 spatially and kinetically changed the skin following the onset of AD-like or psoriasis-like disease symptoms by measuring skin thickness, histological, molecular analysis of inflammatory markers, and itch behavior.
Given that the significant skin inflammation was expected to start at day 5, BIO11006 (100 μM) was administered by intraperitoneal injection in three (3) different settings as described in FIG. 2A (i.e., daily single doses from Day 1 through Day 7, Days 6 and 7 or just Day 7). The skin thickness was measured at Day 0, 1, 3, 5, and 7. Additionally, the itch behavior was recorded at Day 0 and Day 7.

[2] = system: MC903 induced mouse model of atopic dermatitis (AD); experiment: MC903 induced mouse model of atopic dermatitis (AD); assay type: in vivo, C57BL/6 mice; settings: BIO11006 100 μM ip; day 10 only, days 9-10, days 4-10 or days 1-10
From the text: FIG. 1A illustrates the methodological details of an MC903 induced mouse model of atopic dermatitis (AD). In particular, shown is a timeline of the AD induction model and application of the MARCKS inhibitor (BIO 11006) and the three different outcomes analyzed.
FIG. 1B illustrates the skin thickness in micrometers of mice administered MC903 daily for ten (10) days in order to mimic atopic dermatitis (AD) in each of four (4) test groups as compared to the skin thickness in micrometers of mice from either of two (2) control groups. The four (4) test groups consisted of mice administered MC903 daily plus intraperitoneal (ip) injection of BIO 11006 as either (1) a single dose on day 10, (2) a single dose on each of days 9 and 10, (3) a single dose on each of days 4-10, and (4) a daily single dose on each of days 1-10. The two (2) control groups consisted of (1) mice administered the vehicle only and (2) mice administered MC903 daily and vehicle only. […]
Given that the significant skin inflammation was expected to start at day 5, BIO11006 (100 μM) was administered by intraperitoneal injection in four (4) different settings as described in FIG. 1A (i.e., daily single doses from Day 1 through Day 10, Day 4 through Day 10, Days 9 and 10 or just Day 10). The skin thickness was measured at Day 0, 1, 3, 5, 7 and 10. Additionally, the itch behavior was recorded at Day 0 and Day 10.

[3] = BIO11006 100 μM ip daily, days 1-7, nape of the neck, scale 0-5 (FIG. 4)

With Ac-GAQFSKTAAK-OH [BIO 11006] the “visible appearance of the skin on the nape of the neck” value ([1]; BIO11006 100 μM ip daily, days 1-7 (FIG. 3)) was “visible protection/improvement”, the skin bumps [1, 3] was “significant decreases” and the skin dryness [1, 3] was “significant decreases”. The skin flakiness [1, 3] was “significant decreases”, the skin redness [1, 3] was “significant decreases” and the skin thickness ([1]; BIO11006 100 μM ip, daily single dose days 1-7, end of the study, vs imiquimod + PBS (FIG. 2B)) was “significant decrease”. The “results in the mouse model of AD (skin thickness, FIG. 1B)” value [2] was “less conclusive”.
